According to US11925646B2, “Agent for treating or preventing cancer, and combination of RF pathway inhibitor and MEK inhibitor for treating or preventing cancer” (NATIONAL UNIVERSITY CORPORATION HOKKAIDO UNIVERSITY, priority 2021, dated 2024):

Legend:
Capan-1 [1] = experiment: MTS assay, relative survival rate with roseoflavin; format: cell-based, human; details: RoF 0.1 to 10 μM, 24, 48 or 72 hours, ratio to solvent control at 72 hours
Procedure: (§1) Human pancreatic cancer cells were treated with roseoflavin (RoF), and a relative survival rate was calculated assuming that mitochondrial respiratory chain activity corresponded to the survival rate.
(§2) Human pancreatic cancer cell lines, MIAPaCa-2, PANC-1, and Capan-1 were used for performing MTS assay with RoF. All the cell lines were obtained from ATCC. Each of the cell lines was cultured with the following medium in the presence of 5% CO2 at 37° C. • MIAPaCa-2: Dulbecco's Modified Eagle's Medium (Nakalai Tesque) supplemented with 10% fetal bovine serum (Gibco) and 1% penicillin-streptomycin (Nakalai Tesque) • PANC-1: RPMI 1640 medium (Nakalai Tesque) supplemented with 10% fetal bovine serum (Gibco) and 1% penicillin-streptomycin (Nakalai Tesque) • Capan-1: IMDM medium (Iscove's Modified Dulbecco's Medium) (Nakalai Tesque) supplemented with 20% fetal bovine serum (Gibco) and 1% penicillin-streptomycin (Nakalai Tesque)
(§3) Roseoflavin (RoF) was prepared to 0 μM (DMSO alone), 0.1 mM, 0.3 mM, 1 mM, 3 mM, and 10 mM, and the resultants were respectively diluted with the medium by 1000 times to obtain agent solutions (RoF final concentration: 0 μM, 0.1 μM, 0.3 μM, 1 μM, 3 μM and […]).
(§4) In a 96 well plate, MIAPaCa-2 was seeded at 500 cells/well, PANC-1 was seeded at 2,000 cells/well, and Capan-1 was seeded at 10,000 cells/well (in 100 μL of the medium). After these were cultured for 1 day, the RoF agent solution at each concentration was added to the cells in the 96 well plate in an amount of 10 μL each (final concentration of DMSO: 0.1%). Each combination was tested in 3 wells. After the addition of the agent solution, the resultant was cultured in the presence of 5% CO2 at 37° C. for 24, 48 or 72 hours, and a cell survival rate was measured with MTS Assay (Cell Titer 96®, Promega). The survival rate was expressed as a ratio to that of the control (solvent alone) cultured for 72 hours.

MIAPaCa-2 = experiment: MTS assay, relative survival rate with roseoflavin; format: cell-based, human; details: RoF 0.1 to 10 μM, 24, 48 or 72 hours, ratio to solvent control at 72 hours
Procedure: as §1, §2, §3, §4

PANC-1 = experiment: MTS assay, relative survival rate with roseoflavin; format: cell-based, human; details: RoF 0.1 to 10 μM, 24, 48 or 72 hours, ratio to solvent control at 72 hours
Procedure: as §1, §2, §3, §4

RF pathway = experiment: Liquid chromatography mass spectrometry of RoF, RF, FMN and FAD within the cells; format: cell-based, human; details: MIAPaCa-2, PANC-1 and Capan-1; 10 μM RoF, 48 hours; vs DMSO control
AsPC-1 = experiment: Spheroid formation in three-dimensional methylcellulose culture; format: cell-based, human; details: 10 μM RoF, 1 nM Tr, day 21 of culture
Procedure: (§5) The pancreatic cancer cell lines (AsPC-1 and Capan-1) having 4-hit mutation were three-dimensionally cultured in methylcellulose-containing media.
(§6) In a 24 well plate (upper layer: 1.8% methylcellulose, lower layer: 0.48% agarose), AsPC-1 was seeded at 5×10^3 cells/well (in 100 μL of the medium). After culturing for 1 day (day 1), DMSO (control), 10 μM roseoflavin (RoF), 1 nM trametinib (Tr), or 10 μM RoF+1 nM Tr was respectively added to the 24 well plate (final concentration of DMSO: 0.1%). After adding the agent solution, the resultant was cultured in the presence of 5% CO2 at 37° C., and a culture fluid was added on day 14. The resultant was further cultured, and each group was photographed on day 21 to measure the size and the number of spheroids. It is noted that the following media were used for culturing the respective cell lines: • AsPC-1: RPMI 1640 medium (Nakalai Tesque) supplemented with 10% fetal bovine serum (Gibco) and 1% penicillin-streptomycin (Nakalai Tesque) • Capan-1: IMDM medium (Iscove's Modified Dulbecco's Medium) (Nakalai Tesque) supplemented with 20% fetal bovine serum (Gibco) and 1% penicillin-streptomycin (Nakalai Tesque)

Capan-1 [2] = experiment: as above; format: cell-based, human; details: 10 μM RoF, 1 nM Tr, day 21 of culture
Procedure: as §5, §6

4-hit flies (non-GFP) = experiment: Survival rate of 4-hit flies raised on agent diet; format: in vivo, Drosophila; details: in diet: 0.5 μM trametinib, 50 μM roseoflavin; raised at 25° C. for 13 days
Procedure: Roseoflavin and trametinib were dissolved in DMSO (Sigma) to be stored at −20° C.
Agar (Wako), brewers' yeast (MPBio), yeast extract (Sigma Aldrich), Bacto Casitone (BD), sucrose (Wako), glucose (Wako), MgCl2 (Wako), CaCl2) (Wako), propionic acid (Wako), Mold Inhibitor (10% methyl-4-hydroxy benzoate in 95% ethanol: Wako) were dissolved in ultrapure water to produce a standard diet. While this was being warmed at 50° C., an agent (trametinib alone, or a combination of roseoflavin and trametinib) dissolved in DMSO was added thereto to be mixed, and the resultant was cooled to prepare an agent diet. Final concentrations in the diet of the respective compounds were set to 0.5 μM for trametinib, and 50 μM for roseoflavin.
The UAS-RasG12D, UAS-p53 shRNA, UAS-CycE, UAS-Med shRNA fly produced in Example 1 was crossbred with a Ser-gal4 fly (Bloomington Drosophila Stock Center), and the parent flies were caused to lay eggs for 2 days on the standard diet or the agent diet, and thus, 20 to 50 eggs per vial, of Ser-gal4; UAS-RasG12D, UAS-p53 shRNA, UAS-CycE, UAS-Med shRNA 4-hit flies (non-GFP) were obtained. These eggs were raised at 25° C. for 13 days, and survival rate of the 4-hit flies (non-GFP) raised on each diet was calculated by dividing the number of eclosed individuals by the total number of pupae.

| SMILES | relative survival rate (mitochondrial respiratory chain activity) (Capan-1 [1]) | relative survival rate (mitochondrial respiratory chain activity) (MIAPaCa-2) | relative survival rate (mitochondrial respiratory chain activity) (PANC-1) | amount of FAD (flavin adenine dinucleotide) within the cells (RF pathway) | amount of FMN (flavin mononucleotide) within the cells (RF pathway) | amount of RF (riboflavin) within the cells (RF pathway) | spheroid formation, spheroids of 0.1 to 0.2 mm and larger than 0.2 mm (AsPC-1) | number of spheroids of 0.1 mm or smaller (Capan-1 [2]) | spheroid formation, spheroids of 0.1 to 0.2 mm and larger than 0.2 mm (Capan-1 [2]) | improvement of survival rate of 4-hit flies (eclosed individuals / total pupae) (4-hit flies (non-GFP)) |
| --- | --- | --- | --- | --- | --- | --- | --- | --- | --- | --- |
| Cc1cc2nc3c(=O)[nH]c(=O)nc-3n(C[C@H](O)[C@H](O)[C@H](O)CO)c2cc1N(C)C [roseoflavin] | deteriorated mitochondrial respiratory chain activity in a dose dependent manner to decrease the relative survival rate | deteriorated mitochondrial respiratory chain activity in a dose dependent manner to decrease the relative survival rate | deteriorated mitochondrial respiratory chain activity in a dose dependent manner to decrease the relative survival rate | smaller than those in the control | smaller than those in the control | smaller than those in the control | spheroid formation was suppressed | increased | spheroid formation was suppressed | – |
| CC(=O)Nc1cccc(-n2c(=O)n(C3CC3)c(=O)c3c(Nc4ccc(I)cc4F)n(C)c(=O)c(C)c32)c1 [trametinib] | – | – | – | – | – | – | – | – | – | about 10% |
